Columns and labels:
[1] = system: Wnt5a binding to FZD1 CRD, FZD2 CRD, and FZD7 CRD; test: ELISA of biotinylated Wnt5a binding to FZD CRD-Fc
Method: 384-well Maxisorp plates (cat. no. 464718; Thermo Scientific) were incubated with 30 μL of Neutravidin (cat. no. 31000, Thermo Scientific; 2 μg/mL in PBS) overnight at 4° C. Plates were then washed with PBST and blocked with PBS/1% BSA for 1 hour at RT and then washed with PBST prior to further processing. The binding assay was conducted in 96 well plates (cat no. 83007-374; VWR) which were blocked with PBS/1% BSA overnight at 4° C. hFZD4 CRD-Fc or hFZD7 CRD-Fc (63 ng/mL) were incubated with either Bio-Wnt3a (25 ng/mL) or Bio-Wnt5a (50 ng/mL) in the presence of 4-fold serial dilutions of the indicated peptide in PBS overnight at 4° C. All assays included hFZD9 CRD-mIgG2A protein as a negative control. hFZD7 CRD-His was suspended in 150 mM NaCl, 50 mM Tris-HCl at pH 7.5 and when used in assays an equal volume of the same buffer control was used. The binding assay mixtures were transferred to the Neutravidin coated plates and incubated for ˜1 h at RT. The wells were then washed with PBST, incubated with anti-hIgG1-HRP (1:10,000 suspended in PBS supplemented with 1% BSA; cat. no. A18817, Invitrogen), and washed again with PBST. The signal was developed with the addition of TMB reagent (following the manufacturer's recommendation; KPL; 50-76-00) for 15 min prior to the addition of an equal volume of 1 M phosphoric acid for 10 min Absorbance was measured at 450 nm using a Tekan M1000 plate reader. Values were collected and plotted using Prism Graphpad software. All assay conditions using peptides were at 1% DMSO final concentration. […]
Briefly, the assays were performed using (a) FZD1 CRD-Fc, (b) FZD2 CRD-Fc, (c) FZD4 CRD-Fc, or (d) FZD7 CRD-Fc as the capture reagent and biotinylated-Wnt5a as the detection reagent. […] Streptavidin-HRP was used to detect biotinylated Wnt5a, and HRP activity was measured as a function of chemiluminescence detection at 428 nm. […]

[2] = system: intestinal organoid samples; test: RNA sequencing of intestinal organoids; assay type: cell-based, mouse; settings: 6 and 24 h
Method: RNA-Seq libraries were prepared using TruSeq RNA Sample Preparation kit (Illumina, CA). The libraries were sequenced on Illumina HiSeq 2500 sequencers to obtain on average 34 million single-end reads (50 bp) per sample. RNAseq reads were first aligned to ribosomal RNA sequences to remove ribosomal reads. The remaining reads were aligned to the mouse reference genome (NCBI Build 38) using GSNAP (version 2013-10-10) (Wu, T. D. & Nacu, S. Fast and SNP-tolerant detection of complex variants and splicing in short reads. Bioinformatics 26, 873-881 (2010)) allowing a maximum of two mismatches per 50 base sequence (parameters: ‘-M 2-n 10-B 2-i 1-N 1-w 200000-E 1-pairmax-rna=200000-clip-overlap’). Transcript annotation was based on the RefSeq database (NCBI Annotation Release 104). To quantify gene expression levels, the number of reads mapped to the exons of each RefSeq gene was calculated. Read counts were scaled by library size, quantile normalized and precision weights calculated using the “voom” R package (Law, C. W., Chen, Y., Shi, W. & Smyth, G. K. voom: precision weights unlock linear model analysis tools for RNA-seq read counts. Genome Biology 15, R29 (2014)). […] In addition, gene expression was obtained in form of normalized Reads Per Kilobase gene model per Million total reads (nRPKM) as described earlier (Srinivasan, K. et al. Untangling the brain's neuroinflammatory and neurodegenerative transcriptional responses. Nat Commun 7, 11295 (2016)). […]
We performed Quantitative Set Analysis for Gene Expression (QuSAGE) (Yaari, G., Bolen, C. R., Thakar, J. & Kleinstein, S. H. Quantitative set analysis for gene expression: a method to quantify gene set differential expression including gene-gene correlations. Nucleic Acids Research 41, e170-e170 (2013)) to identify relevant biological processes associated with Wnt inhibition. […]

Sequence	effect on Wnt5a binding to FZD1, FZD2 and FZD7 CRD ([1]; peptide 0-10 μM)	expression of markers of Lgr5+ ISCs and reserve ISCs [2]	peptide concentration with the most Wnt5a binding ([1]; FIGS. 22A, 22B) [µM]	enterocyte markers [2]
LPSDDLEFWSHVMY [Fz7-21S, negative control]	showed no effect	Little or no change in gene expression	–	–
LPSDDLEFWCHVMY [dFz7-21]	–	substantial down-regulation	0.05	up-regulation
